Test results reported in US8778941B2, “TRPM8 antagonists and their use in treatments” (AMGEN Inc., priority 2011, dated 2014).

Target: T1, human TRPM8 (Homo sapiens, UniProt Q7Z2W7)
T1 construct: expressed in transfected cells; host or cells: Chinese hamster ovary (CHO) cells, T-REx tetracycline-inducible expression system (Invitrogen), co-transfected with pcDNA3.1 jellyfish aequorin
Assay: Luminescence readout assay for measuring intracellular calcium (aequorin), hTRPM8 antagonism
Assay type: cell-based
Details: CHO cell line expressing human TRPM8 and aequorin; activation by icilin, L-menthol or cold buffer (table does not say which)

T1 sequence (Q7Z2W7 whole entry): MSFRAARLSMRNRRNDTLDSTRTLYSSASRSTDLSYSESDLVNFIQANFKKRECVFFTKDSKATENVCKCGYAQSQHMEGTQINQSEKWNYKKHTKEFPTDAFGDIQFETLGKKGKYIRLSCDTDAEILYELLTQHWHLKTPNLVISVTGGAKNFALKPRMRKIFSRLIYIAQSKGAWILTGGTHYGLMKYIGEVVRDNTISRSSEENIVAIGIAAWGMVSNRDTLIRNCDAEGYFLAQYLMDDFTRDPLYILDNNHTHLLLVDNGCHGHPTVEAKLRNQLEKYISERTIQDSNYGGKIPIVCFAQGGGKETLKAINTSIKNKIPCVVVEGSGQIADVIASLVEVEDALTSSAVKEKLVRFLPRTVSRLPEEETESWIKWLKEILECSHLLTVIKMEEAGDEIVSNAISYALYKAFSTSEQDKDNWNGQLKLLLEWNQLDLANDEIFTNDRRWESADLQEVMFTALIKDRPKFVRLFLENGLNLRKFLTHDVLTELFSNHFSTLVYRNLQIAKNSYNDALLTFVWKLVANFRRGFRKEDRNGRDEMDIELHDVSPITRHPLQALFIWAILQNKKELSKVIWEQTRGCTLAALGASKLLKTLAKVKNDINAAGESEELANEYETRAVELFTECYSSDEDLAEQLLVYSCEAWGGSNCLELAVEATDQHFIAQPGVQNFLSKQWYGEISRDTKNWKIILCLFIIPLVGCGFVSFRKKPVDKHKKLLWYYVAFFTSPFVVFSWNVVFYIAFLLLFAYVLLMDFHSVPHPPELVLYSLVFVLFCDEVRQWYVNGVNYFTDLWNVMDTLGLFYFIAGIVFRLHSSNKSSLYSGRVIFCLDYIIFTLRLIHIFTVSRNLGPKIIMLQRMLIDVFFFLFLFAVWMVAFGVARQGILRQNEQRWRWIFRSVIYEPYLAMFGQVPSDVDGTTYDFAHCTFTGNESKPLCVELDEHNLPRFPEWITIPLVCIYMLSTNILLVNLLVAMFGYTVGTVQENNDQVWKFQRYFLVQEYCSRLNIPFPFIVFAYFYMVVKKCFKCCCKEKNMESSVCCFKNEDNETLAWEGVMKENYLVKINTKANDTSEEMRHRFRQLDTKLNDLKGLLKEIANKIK

| SMILES | IC50 [nM] |
| --- | --- |
| COc1cc(CCNC(=O)N[C@@H](c2ccc(C(F)(F)F)cc2)c2ncccc2C(F)(F)F)cc(OC)c1 [Example 93, (S)-1-(3,5-dimethoxy-phenethyl)-3-((4-(trifluoro-methyl)-phenyl)(3-(trifluoro-methyl)-pyridin-2-yl)-methyl)urea (2,2,2-trifluoro-acetate)] | 1440 |
| O=C(Nc1ccc(F)cc1)N[C@@H](c1ccc(C(F)(F)F)cc1)c1ncccc1C(F)(F)F [Example 47, (S)-1-(4-fluorophenyl)-3-((4-(trifluoro-methyl)-phenyl)(3-(trifluoro-methyl)-pyridin-2-yl)-methyl)urea] | 98 |
| CCOC(=O)CCNC(=O)N[C@@H](c1ccc(C(F)(F)F)cc1)c1ncccc1C(F)(F)F [Example 66, (S)-ethyl 3-(3-((4-(trifluoro-methyl)-phenyl)(3-(trifluoro-methyl)-pyridin-2-yl)-methyl)-ureido)-propanoate (2,2,2-trifluoro-acetate)] | 905 |
| CCOC(=O)[C@H](C)NC(=O)N[C@@H](c1ccc(C(F)(F)F)cc1)c1ncccc1C(F)(F)F [Example 94, (S)-ethyl 2-(3-((S)-(4-(trifluoro-methyl)-phenyl)(3-(trifluoro-methyl)-pyridin-2-yl)-ureido)-propanoate (2,2,2-trifluoro-acetate)] | 1710 |
| C=C(C)c1cccc(C(C)(C)NC(=O)N[C@@H](c2ccc(C(F)(F)F)cc2)c2ncccc2C(F)(F)F)c1 [Example 105, (S)-1-(2-(3-(prop-1-en-2-yl)phenyl)-propan-2-yl)-3-((4-(trifluoro-methyl)-phenyl)(3-(trifluoro-methyl)-pyridin-2-yl)-methyl)urea (2,2,2-trifluoro-acetate)] | 545 |
| O=C(Nc1cccnc1)N[C@@H](c1cnc2c(F)cccc2c1)c1ncccc1C(F)(F)F [Example 14, (S)-1-((8-fluoro-quinolin-3-yl)-(3-(trifluoro-methyl)-pyridin-2-yl)-methyl)-3-(pyridin-3-yl)-urea] | 533 |
| O=C(Nc1cc(F)cc(F)c1)N[C@@H](c1ccc(C(F)(F)F)cc1)c1ncccc1C(F)(F)F [Example 49, (S)-1-(3,5-difluoro-phenyl)-3-((4-(trifluoro-methyl)-phenyl)(3-(trifluoro-methyl)-pyridin-2-yul)-methyl)urea] | 558 |
| O=C(Nc1cccnc1)N[C@@H](c1ccc(C(F)(F)F)c(F)c1)c1ccccc1C(F)(F)F [Example 121, (S)-1-((3-fluoro-4-(trifluoro-methyl)-phenyl)(2-(trifluoro-methyl)-phenyl)-methyl)-3-(pyridin-3-yl)-urea] | 84 |
| C=CCc1cccnc1[C@@H](NC(=O)Nc1cccnc1)c1ccc(C(F)(F)F)cc1 [Example 43, (S)-1-((3-allylpyridin-2-yl)(4-(trifluoromethyl)phenyl)-methyl)-3-(pyridin-3-yl)urea] | 22 |
| Cc1ccccc1CNC(=O)N[C@@H](c1ccc(C(F)(F)F)cc1)c1ncccc1C(F)(F)F [Example 85, (S)-1-(2-methylbenzyl)-3-((4-(trifluoro-methyl)-phenyl)(3-(trifluoro-methyl)-pyridin-2-yl)-methyl)urea (2,2,2-trifluoro-acetate)] | 405 |
| CCOc1ccccc1CNC(=O)N[C@@H](c1ccc(C(F)(F)F)cc1)c1ncccc1C(F)(F)F [Example 133, (S)-1-(2-ethoxybenzyl)-3-((4-(trifluoro-methyl)-phenyl)(3-(trifluoro-methyl)-pyridin-2-yl)-methyl)urea (2,2,2-trifluoro-acetate)] | 1590 |
| Cc1cccc([C@H](NC(=O)Nc2cccnc2)c2ncccc2C(F)(F)F)c1 [Example 7, (S)-1-((3-methylphenyl) (3-(trifluoro-methyl)-pyridin-2-yl)-methyl)-3-(pyridin-3-yl)-urea] | 723 |
| COc1ccc(CCNC(=O)N[C@@H](c2ccc(C(F)(F)F)cc2)c2ncccc2C(F)(F)F)cc1OC [Example 95, (S)-1-(3,4-dimethoxy-phenethyl)-3-((4-(trifluoro-methyl)-phenyl)(3-(trifluoro-methyl)-pyridin-2-yl)-methyyl)urea (2,2,2-trifluoro-acetate)] | 1920 |
| O=C(N[C@@H](c1ccc(OC(F)(F)F)c(F)c1)c1ncccc1F)OC1CCOCC1 [Example 176, (S)-tetrahydro-2H-pyran-4-yl ((3-fluoro-4-(trifluoromethoxy)phenyl)(3-fluoropyridin-2-yl)methyl)carbamate] | 211 |
| COC(=O)[C@H](C)NC(=O)N[C@@H](c1ccc(C(F)(F)F)cc1)c1ncccc1C(F)(F)F [Example 79, (S)-methyl-2-(3-((S)-(4-(trifluoro-methyl)-phenyl)(3-(trifluoro-methyl)-pyridin-2-yl)-methyl)-ureido)-propanoate (2,2,2-trifluoro-acetate)] | 1500 |
| O=C(N[C@@H](c1ccc(OC(F)(F)F)c(F)c1)c1ncccc1F)OC1COC1 [Example 177, (S)-oxetan-3-yl ((3-fluoro-4-(trifluoromethoxy)phenyl)(3-fluoropyridin-2-yl)methyl)carbamate] | 517 |

| SMILES | IC50 [nM] |
| --- | --- |
| O=C(Nc1ccnc2ccccc12)N[C@@H](c1ccc(C(F)(F)F)cc1)c1ncccc1C(F)(F)F [Example 60, (S)-1-(quinolin-4-yl)-3-((4-(trifluoro-methyl)-phenyl)(3-(trifluoro-methyl)-pyridin-2-yl)-methyl)urea] | 182 |
| COC(=O)c1cc(NC(=O)N[C@@H](c2ccc(C(F)(F)F)cc2)c2ncccc2C(F)(F)F)cc(C(=O)OC)c1 [Example 103, (S)-dimethyl 5-(3-((4-(trifluoro-methyl)-phenyl)(3-(trifluoro-methyl)-pyridin-2-yl)-methyl)-ureido)-isophthalate (2,2,2-trifluoro-acetate)] | 527 |
| O=C(Nc1ccc(F)cc1F)N[C@@H](c1ccc(C(F)(F)F)cc1)c1ncccc1C(F)(F)F [Example 48, (S)-1-(2,4-difluoro-phenyl)-3-((4-(trifluoro-methyl)-phenyl)(3-(trifluoro-methyl)-pyridin-2-yl)-methyl)urea] | 2280 |
| CCOC(=O)c1ccc(NC(=O)N[C@@H](c2ccc(C(F)(F)F)cc2)c2ncccc2C(F)(F)F)cc1 [Example 187, (S)-ethyl 4-(3-((4-(trifluoro-methyl)phenyl) (3-(trifluoro-methyl)pyridin-2-yl)methyl)ureido)benzoate (2,2,2-trifluoro-acetate)] | 1550 |
| CCOC(=O)N[C@@H](c1ccc(C(F)(F)F)cc1)c1ncccc1C(F)(F)F [Example 170, (S)-Ethyl((4-(trifluoromethyl)phenyl)(3-(trifluoromethyl)-pyridin-2-yl)methyl)carbamate] | 147 |
| O=C(Nc1cccc(Br)c1)N[C@@H](c1ccc(C(F)(F)F)cc1)c1ncccc1C(F)(F)F [Example 37, (S)-1-(3-bromophenyl)-3-((4-(trifluoro-methyl)-phenyl)(3-(trifluoro-methyl)-pyridin-2-yl)-methyl)urea (2,2,2-trifluoro-acetate)] | 4080 |
| CCOC(=O)C(NC(=O)N[C@@H](c1ccc(C(F)(F)F)cc1)c1ncccc1C(F)(F)F)C(C)C (stereo partly drawn) [Example 98, ethyl 3-methyl-2-(3-((S)-(4-(trifluoro-methyl)-phenyl)(3-(trifluoro-methyl)-pyridin-2-yl)-methyl)-ureido)-butanoate (2,2,2-trifluoro-acetate)] | 2220 |
| O=C(Nc1c(F)cccc1F)N[C@@H](c1ccc(C(F)(F)F)cc1)c1ncccc1C(F)(F)F [Example 50, (S)-1-(2,6-difluoro-phenyl)-3-((4-(trifluoro-methyl)-phenyl)(3-(trifluoro-methyl)-pyridin-2-yl)-methyl)urea] | 209 |
| CSc1ccccc1NC(=O)N[C@@H](c1ccc(C(F)(F)F)cc1)c1ncccc1C(F)(F)F [Example 137, (S)-1-(2-(methylthio)-phenyl)-3-((4-(trifluoro-methyl)-phenyl)(3-(trifluoro-methyl)-pyridin-2-yl)-methyl)urea (2,2,2-trifluoro-acetate)] | 156 |
| O=C1Cc2cc(NC(=O)N[C@@H](c3ccc(C(F)(F)F)cc3)c3ncccc3F)ccc2N1 [Example 149] | 55 |
| O=C(NCc1ccccc1Cl)N[C@@H](c1ccc(C(F)(F)F)cc1)c1ncccc1C(F)(F)F [Example 73, (S)-1-(2-chlorobenzyl)-3-((4-(trifluoro-methyl)-phenyl)(3-(trifluoro-methyl)-pyridin-2-yl)-methyl)urea (2,2,2-trifluoro-acetate)] | 332 |
| O=C(NC1CCCc2ccccc21)N[C@@H](c1ccc(C(F)(F)F)cc1)c1ncccc1C(F)(F)F (stereo partly drawn) [Example 185, 1-(1,2,3,4-tetrahydro-naphthalen-1-yl)-3-((S)-(4-(trifluoromethyl)phenyl)(3-(trifluoromethyl)pyridin-2-yl)methyl)urea (2,2,2-trifluoro-acetate)] | 739 |
| COc1ccc(OC)c(CCNC(=O)N[C@@H](c2ccc(C(F)(F)F)cc2)c2ncccc2C(F)(F)F)c1 [Example 110, (S)-1-(2,5-dimethoxy-phenethyl)-3-((4-(trifluoro-methyl)-phenyl)(3-(trifluoro-methyl)-pyridin-2-yl)-methyl)urea (2,2,2-trifluoro-acetate)] | 190 |
| CC(C)(C)NC(=O)N[C@@H](c1ccc(C(F)(F)F)cc1)c1ccccc1Br [Example 116, (S)-1-((2-bromophenyl) (4-(trifluoro-methyl)-phenyl)-methyl)-3-tert-butylurea] | 133 |
| O=C(Nc1ccc(F)c([N+](=O)[O-])c1)N[C@@H](c1ccc(C(F)(F)F)cc1)c1ncccc1C(F)(F)F [Example 139, (S)-1-(4-fluoro-3-nitrophenyl)-3-((4-(trifluoro-methyl)-phenyl)(3-(trifluoro-methyl)-pyridin-2-yl)-methyl)urea (2,2,2-trifluoro-acetate)] | 1310 |
| O=C(NC(=O)Oc1ccccc1)N[C@@H](c1ccc(C(F)(F)F)cc1)c1ncccc1C(F)(F)F [Example 35, (S)-1-(phenyl-formate)-3-((4-(trifluoro-methyl)-phenyl)(3-(trifluoro-methyl)-pyridin-2-yl)-methyl)urea (2,2,2-trifluoro-acetate)] | 1710 |
